Laboratory results: US20060014641A1 (priority 2004, published 2006)

Assays:
boll weevil larvae [1] = test: Boll weevil larvae bioassay (agar liquid diet); conditions: in vivo
Experimental: Boll Weevil Larvae Bioassay
Assays for activity against boll weevil larvae are carried out by incorporating the test sample into a agar liquid diet similar to that for southern corn rootworm [Marrone P. G., Ferri F. D., Mosley T. R., Meinke L. J., “Improvements in laboratory rearing of the southern corn rootworm, Diabrotica undecimpunctata howardi Barber (Coleoptera: Chrysomelidae) on artificial diet and corn,” Journal of Economic Entomology, 78:290-3, 1985]. The test sample is substituted for the 20% water component. Neonate larvae are allowed to feed on the diet and mortality and growth stunting are evaluated.

Lepidopteran larvae = Lepidopteran larvae bioassay (artificial diet); parameters: species or system lepidopteran insects; conditions: in vivo
Experimental: Lepidopteran Larvae Bioassay
Lepidopteran larvae are tested on artificial diet treated with various amounts of oxalate for a number of days.

adult boll weevils = test: Boll weevil reproduction test; format: in vivo; conditions: oxalate in standard diet
Experimental: Preoviposition: Approximately 220 adult boll weevils, collected within 2 days of emergence, are divided into two groups. […] The adults are allowed to feed and mate for four days at which time mortality is determined. Oviposition study: These two groups of adults are then divided into two subgroups and individually placed on artificial, oxalate-containing or control bolls. […] After three days at 27% C, the adults are removed and ten bolls from each of the four groups are removed and examined for eggs. The remaining bolls are incubated for an additional 7 days at 27% C to allow development of larvae. The bolls are then dissected and the eggs and larvae, dead and surviving, are counted. • Group 1=Control Adults placed on control bolls • Group 2=Control Adults placed on treated bolls • Group 3=oxalate-fed adults placed on control bolls • Group 4=oxalate-fed adults placed on treated bolls Mode of Action Studies

boll weevil larvae [2] = test: Cotton seed diet assay; format: in vivo; conditions: cottonseed flour diets, after six days, in the presence of cotton plant components
Experimental: Two treatment diets are made by mixing 30 g of one of two types of cottonseed flour into 170 mL of a 1.6% agar solution at 50% C, containing 0.13% propionic acid, 0.014% phosphoric acid, and 30 mg each of streptomycin sulfate and chlortetracycline. Before mixing, 10% KOH was used to adjust the pH to 6.2. One test diet utilized raw cottonseed flour (Sigma) as the nutrient source; the other utilized Pharmamedia.™. (Traders Protein), a flour made up of cottonseed embryos. The diets were incubated in a water bath at 40% C. Dilutions of the oxalate are incorporated into the diets as described above. Boll weevil larvae are allowed to feed and mortality rates are determined after six days.

boll weevil larvae [3] = test: Homogenized cotton leaf tissue assay; format: in vivo; conditions: cotton leaf tissue agar diet, evaluated six days later
Experimental: Homogenized Cotton Leaf Tissue Assay In order to test oxalate against boll weevil larvae in a host tissue diet environment, a study is conducted in which cotton leaf tissue is the only nutritional component of an agar-based diet. Two cotton leaves (each approx. 5 inches wide) with stems are homogenized at 50% C into 170 mL of a 1.6% agar solution containing 0.13% propionic acid, 0.014% phosphoric acid, and 30 mg each of streptomycin sulfate and chlortetracycline. Before addition of the leaves, 10% KOH is used to adjust the pH of the agar solution to 6.2. The leaf “diet” is allowed to cool to 40% C. Dilutions of oxalate and a water control are incorporated into the leaf “diet”, poured into insect diet trays and allowed to cool. Boll weevil eggs are added to the diet wells. The assay is evaluated six days later. […] This will illustrate that the oxalate is insecticidal in the presence of intact cotton tissue and cells.

Structure (SMILES): O=C(O)C(=O)O [Oxalate, oxalic acid]
- effect on boll weevil larvae (boll weevil larvae [1]): lethal
- mortality and stunting of larvae of lepidopteran insects (Lepidopteran larvae): mortality and stunting
- effect on reproductive cycle of adult boll weevils (adult boll weevils): affect the reproductive cycle
- effect on reproductive cycle of adult boll weevils (adult boll weevils; listed as Oxlate): interrupt the reproductive cycle
- mortality of boll weevil larvae (boll weevil larvae [2]): lethal
- insecticidal activity in the presence of cotton leaf tissue (boll weevil larvae [3]): maintains its insecticidal activity
